Measurements as given in ChEMBL document CHEMBL4184160, “Recent Progress of Small-Molecule Epidermal Growth Factor Receptor (EGFR) Inhibitors against C797S Resistance in Non-Small-Cell Lung Cancer” (J Med Chem, 2018).
Blank lines part the entries; values can stand above or below the compound they belong to.

Key:
[1] = target: Epidermal growth factor receptor (Homo sapiens, UniProt P00533, C797S/T790M); experiment: Inhibition of N-terminal GST-fused human EGFR cytoplasmic domain T790M/C797S mutant expressed in baculovirus expression system using TK-substrate after 20 mins by HTRF KinEASE-TK assay
[2] = system: NCI-H1975; experiment: Growth inhibition of human NCI-H1975 cells after 96 hrs by CellTiter-Glo assay; format: functional; settings: NCI-H1975, 96 h
[3] = target: Epidermal growth factor receptor (Homo sapiens, UniProt P00533, C797S/L858R/T790M); experiment: Inhibition of recombinant human EGFR L858R/T790M/C797S mutant using TK-substrate after 10 mins by HTRF KinEASE-TK assay
[4] = system: Epidermal growth factor receptor (Homo sapiens), P00533 [UNDEFINED MUTATION]
Description: Inhibition of human EGFR del19/T790M/C797S mutant expressed in mouse Ba/F3 cells assessed as cell growth inhibition after 72 hrs by CellTiter-Glo assay

[5] = target: Epidermal growth factor receptor (Homo sapiens, UniProt P00533); experiment: Inhibition of wild type recombinant N-terminal GST-tagged human EGFR catalytic domain expressed in Sf9 insect cells using poly-Glu-Tyr (4:1) as substrate after 2 hrs in presence of [gamma-33P]-ATP by filter-binding method
[6] = target: Epidermal growth factor receptor (Homo sapiens, UniProt P00533, 746-750DEL/C797S/T790M); experiment: Inhibition of recombinant human EGFR d746-750/T790M/C797S mutant using poly-Glu-Tyr (4:1) as substrate after 2 hrs in presence of [gamma-33P]-ATP by filter-binding method
[7] = species on record: Homo sapiens; experiment: Selectivity ratio of IC50 for wild type recombinant N-terminal GST-tagged human EGFR catalytic domain to IC50 for recombinant human EGFR d746-750/T790M/C797S mutant
[8] = species on record: Homo sapiens; experiment: Selectivity ratio of IC50 for human EGFR T790M mutant to IC50 for human wild type EGFR

Chain of Epidermal growth factor receptor (Homo sapiens, UniProt P00533, C797S/L858R/T790M) (P00533 25-1210 T790M/C797S/L858R limits assumed): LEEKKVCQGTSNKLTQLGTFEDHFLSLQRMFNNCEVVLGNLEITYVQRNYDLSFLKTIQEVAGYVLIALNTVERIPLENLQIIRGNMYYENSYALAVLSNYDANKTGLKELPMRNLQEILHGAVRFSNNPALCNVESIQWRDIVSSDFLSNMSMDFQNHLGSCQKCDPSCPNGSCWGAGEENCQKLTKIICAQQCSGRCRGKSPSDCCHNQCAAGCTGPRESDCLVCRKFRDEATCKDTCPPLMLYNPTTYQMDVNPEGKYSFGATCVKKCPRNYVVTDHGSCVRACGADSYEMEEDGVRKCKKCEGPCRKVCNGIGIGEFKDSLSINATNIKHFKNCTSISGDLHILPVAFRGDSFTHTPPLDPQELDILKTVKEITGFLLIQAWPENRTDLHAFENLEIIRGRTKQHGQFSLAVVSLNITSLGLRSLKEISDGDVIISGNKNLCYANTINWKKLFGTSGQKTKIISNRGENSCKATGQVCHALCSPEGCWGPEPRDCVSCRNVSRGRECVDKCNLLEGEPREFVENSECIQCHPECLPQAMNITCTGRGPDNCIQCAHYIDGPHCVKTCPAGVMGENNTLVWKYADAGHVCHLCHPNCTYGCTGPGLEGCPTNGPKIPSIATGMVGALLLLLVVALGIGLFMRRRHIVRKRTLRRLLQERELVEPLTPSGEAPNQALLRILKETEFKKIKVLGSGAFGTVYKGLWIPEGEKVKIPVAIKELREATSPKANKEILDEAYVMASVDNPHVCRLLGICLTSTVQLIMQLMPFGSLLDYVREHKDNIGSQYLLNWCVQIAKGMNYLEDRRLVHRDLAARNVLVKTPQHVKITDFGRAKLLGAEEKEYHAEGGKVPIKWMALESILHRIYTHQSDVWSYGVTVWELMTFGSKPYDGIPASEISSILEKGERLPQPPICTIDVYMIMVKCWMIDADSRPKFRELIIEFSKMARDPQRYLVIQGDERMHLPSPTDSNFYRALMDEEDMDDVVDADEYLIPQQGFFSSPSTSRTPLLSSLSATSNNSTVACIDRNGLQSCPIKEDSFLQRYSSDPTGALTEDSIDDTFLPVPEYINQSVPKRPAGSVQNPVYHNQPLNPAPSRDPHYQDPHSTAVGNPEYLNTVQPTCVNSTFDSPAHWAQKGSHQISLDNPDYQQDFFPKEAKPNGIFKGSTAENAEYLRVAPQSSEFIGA
Chain of Epidermal growth factor receptor (Homo sapiens, UniProt P00533, 746-750DEL/C797S/T790M) (P00533 whole entry, looked up, stated change not applied, the tested form may be a part): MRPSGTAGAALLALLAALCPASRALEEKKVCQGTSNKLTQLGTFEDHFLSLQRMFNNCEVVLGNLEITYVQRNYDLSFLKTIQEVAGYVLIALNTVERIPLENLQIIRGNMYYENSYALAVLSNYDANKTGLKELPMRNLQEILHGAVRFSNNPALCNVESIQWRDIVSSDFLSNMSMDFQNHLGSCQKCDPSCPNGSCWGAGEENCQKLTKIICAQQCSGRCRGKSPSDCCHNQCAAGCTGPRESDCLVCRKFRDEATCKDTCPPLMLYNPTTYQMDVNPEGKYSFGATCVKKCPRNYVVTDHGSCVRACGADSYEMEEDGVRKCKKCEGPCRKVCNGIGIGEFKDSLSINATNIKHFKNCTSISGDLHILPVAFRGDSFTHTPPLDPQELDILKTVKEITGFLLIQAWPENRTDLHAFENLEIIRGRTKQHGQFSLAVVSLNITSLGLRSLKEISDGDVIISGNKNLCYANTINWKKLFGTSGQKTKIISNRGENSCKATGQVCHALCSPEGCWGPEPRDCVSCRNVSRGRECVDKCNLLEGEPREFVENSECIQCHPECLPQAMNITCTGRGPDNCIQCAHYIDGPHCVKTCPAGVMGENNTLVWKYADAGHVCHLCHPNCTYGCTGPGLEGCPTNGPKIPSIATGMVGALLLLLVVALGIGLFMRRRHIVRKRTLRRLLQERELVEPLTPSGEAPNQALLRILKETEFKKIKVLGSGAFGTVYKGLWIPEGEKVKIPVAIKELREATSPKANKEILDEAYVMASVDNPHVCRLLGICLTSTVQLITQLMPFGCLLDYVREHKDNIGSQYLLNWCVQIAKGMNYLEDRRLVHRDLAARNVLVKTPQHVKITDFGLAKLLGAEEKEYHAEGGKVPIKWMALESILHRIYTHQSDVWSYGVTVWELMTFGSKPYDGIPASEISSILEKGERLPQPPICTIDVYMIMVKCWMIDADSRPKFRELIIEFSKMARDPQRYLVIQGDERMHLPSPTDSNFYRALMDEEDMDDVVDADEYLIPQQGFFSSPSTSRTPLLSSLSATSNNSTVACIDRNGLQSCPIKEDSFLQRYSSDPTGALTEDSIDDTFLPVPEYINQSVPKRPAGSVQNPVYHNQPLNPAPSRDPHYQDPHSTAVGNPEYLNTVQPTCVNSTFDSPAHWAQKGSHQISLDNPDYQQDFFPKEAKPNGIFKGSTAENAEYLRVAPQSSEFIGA
Chain of Epidermal growth factor receptor (Homo sapiens), P00533 [UNDEFINED MUTATION] (P00533 whole entry, looked up, stated change not applied, the tested form may be a part): as above
Chain of Epidermal growth factor receptor (Homo sapiens, UniProt P00533) (P00533 whole entry, the tested form may be a part): as the sequence (P00533 whole entry, looked up, stated change not applied, the tested form may be a part) above

SMILES: C=CC(=O)N1CCC[C@@H](n2nc(-c3ccc4ccccc4c3)c3c(N)ncnc32)C1
- IC50 [1]: < 0.001 µM
- GI50 [2]: 0.14 µM
- IC50 [3]: 0.088 µM

SMILES: COc1cc(N2CCC(N)CC2)ccc1Nc1ncc(Cl)c(-c2c[nH]c3ccccc23)n1
- GI50 [4]: 0.132 µM

SMILES: Cc1cc(Nc2ncc(Cl)c(Nc3ccccc3S(=O)(=O)C(C)C)n2)c(OC(C)C)cc1C1CCNCC1
- GI50 [4]: 0.78 µM

SMILES: COc1cc(N2CCC(N(C)C)CC2)ccc1Nc1ncc(Cl)c(Nc2ccccc2P(C)(C)=O)n1
- GI50 [4]: 0.0591 µM

SMILES: C=CC(=O)Nc1cccc(Oc2nc(Nc3ccc(N4CCN(C)CC4)cc3OC)ncc2Cl)c1
- Ratio IC50 [8]: 30 to 100

SMILES: COc1cc(N2CCC(N3CCN(C)CC3)CC2)ccc1Nc1ncnc(Nc2ccccc2S(=O)(=O)C(C)C)n1
- GI50 [4]: 1.51 µM

SMILES: C=CC(=O)N1CCC[C@@H](n2nc(-c3cn(C)c4ccccc34)c3c(N)ncnc32)C1
- IC50 [1]: 0.0025 µM
- GI50 [2]: 0.21 µM
- IC50 [3]: 0.838 µM

SMILES: C=CC(=O)N1CCC[C@@H](n2nc(-c3cccc4ccccc34)c3c(N)ncnc32)C1
- IC50 [1]: 0.0019 µM
- GI50 [2]: 0.49 µM
- IC50 [3]: 7.9 µM

More lines, now with the values ahead:

- IC50 [5]: 24.3 µM
- IC50 [6]: 0.149 µM
- Ratio IC50 [7]: 163
SMILES: Oc1ccccc1-c1nc(NCc2cccnc2)c2ccccc2n1

- IC50 [5]: > 50 µM
- IC50 [6]: 0.023 µM
- Ratio IC50 [7]: > 1000
SMILES: N#Cc1ccc(O)c(-c2nc(NCc3cccnc3)c3ccccc3n2)c1

- IC50 [5]: > 50 µM
- IC50 [6]: 0.046 µM
- Ratio IC50 [7]: > 1000
SMILES: COC(=O)c1ccc(O)c(-c2nc(NCc3cccnc3)c3ccccc3n2)c1

- IC50 [5]: > 50 µM
- IC50 [6]: 0.017 µM
- Ratio IC50 [7]: > 1000
SMILES: N#Cc1ccc(O)c(-c2nc(NCc3cnccn3)c3ccccc3n2)c1
